This note sets out measurements from ChEMBL document CHEMBL5120822, “Inhibition of the P2X7/NLRP3 Inflammasome Signaling Pathway by Deacetylgedunin from Toona sinensis” (J Nat Prod, 2022).

The IC50 is the concentration that inhibits the measured activity by half.

Calls of active or inactive are those of the source. No cut-off for these calls is given here.

In assay [1] the target is NACHT, LRR and PYD domains-containing protein 3 (Homo sapiens) (UniProt Q96P20). Put plainly: Inhibition of NLRP3 inflammasome activation in PMA-differentiated and LPS/MSU-stimulated human THP-1 cells assessed as decrease in caspase-1 expression at 20 uM incubated for 1 hrs followed by LPS stimulation for 12 hrs and MSU addition for 6 hrs by western blot analysis. It counts as cell-based. The note with it: time 19.0 hrs. A general note: In western blotting, separated proteins are transferred to a membrane and probed.
Chain of NACHT, LRR and PYD domains-containing protein 3 (Homo sapiens) (Q96P20 whole entry, the tested form may be a part): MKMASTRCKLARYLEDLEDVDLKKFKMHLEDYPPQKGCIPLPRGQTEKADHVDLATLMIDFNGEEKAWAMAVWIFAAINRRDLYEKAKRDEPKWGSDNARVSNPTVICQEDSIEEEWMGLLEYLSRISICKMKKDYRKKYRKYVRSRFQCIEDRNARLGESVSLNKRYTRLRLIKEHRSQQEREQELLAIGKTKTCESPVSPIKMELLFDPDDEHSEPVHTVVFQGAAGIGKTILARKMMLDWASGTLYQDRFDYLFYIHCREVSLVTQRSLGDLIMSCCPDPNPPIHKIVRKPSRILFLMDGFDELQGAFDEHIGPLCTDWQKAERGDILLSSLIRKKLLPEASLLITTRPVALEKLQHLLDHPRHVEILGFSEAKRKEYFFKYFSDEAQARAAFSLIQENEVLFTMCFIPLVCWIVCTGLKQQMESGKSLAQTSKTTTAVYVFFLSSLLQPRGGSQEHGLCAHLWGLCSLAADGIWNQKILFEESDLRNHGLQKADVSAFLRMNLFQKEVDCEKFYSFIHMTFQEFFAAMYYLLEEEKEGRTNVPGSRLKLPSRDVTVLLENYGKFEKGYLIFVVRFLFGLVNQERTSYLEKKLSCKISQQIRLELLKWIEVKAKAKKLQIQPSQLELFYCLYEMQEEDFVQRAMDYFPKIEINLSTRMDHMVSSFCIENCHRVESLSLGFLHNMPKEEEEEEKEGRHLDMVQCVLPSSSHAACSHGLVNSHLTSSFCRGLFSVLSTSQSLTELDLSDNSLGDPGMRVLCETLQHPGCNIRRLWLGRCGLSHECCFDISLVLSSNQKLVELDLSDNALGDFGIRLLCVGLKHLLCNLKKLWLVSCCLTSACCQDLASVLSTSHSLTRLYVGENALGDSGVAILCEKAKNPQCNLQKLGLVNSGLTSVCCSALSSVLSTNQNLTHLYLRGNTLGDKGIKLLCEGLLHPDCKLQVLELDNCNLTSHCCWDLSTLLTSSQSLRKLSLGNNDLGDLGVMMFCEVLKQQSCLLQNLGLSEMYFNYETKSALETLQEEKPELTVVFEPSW

For assay [2] the target is unchanged. In words: Inhibition of NLRP3 inflammasome activation in PMA-differentiated and LPS/MSU-stimulated human THP-1 cells assessed as inhibition of IL-1beta secretion at 20 uM incubated for 1 hrs followed by LPS stimulation for 12 hrs and MSU addition for 6 hrs by ELISA. It counts as cell-based. The settings on record: time 19.0 hrs. (In general: ELISA stands for enzyme-linked immunosorbent assay.)

For assay [3] the target is unchanged. Put plainly: Inhibition of NLRP3 inflammasome activation in PMA-differentiated and LPS/NIG-stimulated human THP-1 cells assessed as decrease of ASC polymers at 20 uM incubated for 1 hrs followed by LPS stimulation for 12 hrs and NIG addition for 2 hrs by Western blot analysis. It counts as cell-based. The settings on record: time 15.0 hrs.
Assay [4] concerns THP-1. Put plainly: Antiinflammatory activity against PMA-differentiated and LPS/NIG stimulated human THP-1 cells assessed as increase in cell viability at 5 to 20 uM incubated for 1 hrs followed by LPS stimulation for 12 hrs and NIG addition for 2 hrs by LDH assay. It counts as functional, cell-based. The settings on record: dose 5-20 µM, time 15.0 hrs.
The target in assay [5] is NACHT, LRR and PYD domains-containing protein 3 (Homo sapiens) (UniProt Q96P20). Put plainly: Inhibition of NLRP3 inflammasome activation in PMA-differentiated and LPS/ATP-stimulated human THP-1 cells assessed as assessed as increase in potassium ion concentration at 5 to 20 uM incubated for 1 hrs followed by LPS stimulation for 12 hrs and ATP addition for 0.5 hrs by EPG-2 AM staining based flow cytometry. It counts as cell-based. The note with it: dose 5-20 µM, time 13.5 hrs.

The subject of assay [6] is THP-1. Put plainly: Antiinflammatory activity against PMA-differentiated and LPS/NIG stimulated human THP-1 cells assessed as increase in cell viability at 5 to 20 uM incubated for 1 hrs followed by LPS stimulation for 12 hrs and NIG addition for 2 hrs by CCK8 assay. It counts as functional, cell-based. The settings on record: dose 5-20 µM, time 15.0 hrs. Background: Tetrazolium dyes change colour on reduction, which living cells bring about.

The target in assay [7] is NACHT, LRR and PYD domains-containing protein 3 (Homo sapiens) (UniProt Q96P20). In words: Inhibition of NLRP3 inflammasome activation in PMA-differentiated and LPS/NIG-stimulated human THP-1 cells assessed as decrease of ASC oligomerization at 20 uM incubated for 1 hrs followed by LPS stimulation for 12 hrs and NIG addition for 2 hrs by DAPI staining based immunofluorescence analysis. It counts as cell-based. The note with it: time 15.0 hrs.

Assay [8] shares this target. Put plainly: Inhibition of NLRP3 inflammasome activation in PMA-differentiated and LPS/ATP-stimulated human THP-1 cells assessed as downregulation of NF-KappaB p65 subunit phosphorylation at 5 to 20 uM incubated for 1 hrs followed by LPS stimulation for 12 hrs and ATP addition for 0.5 hrs by Western blot analysis. The note with it: dose 5-20 µM, time 13.5 hrs. It counts as cell-based.

In assay [9] the test system is THP-1. In words: Antiinflammatory activity against PMA-differentiated human THP-1 cells assessed as reduction in IL-1beta level at 20 uM incubated for 1 hrs followed by LPS stimulation for 12 hrs and ATP addition for 0.5 hrs by ELISA. The settings on record: time 13.5 hrs. It counts as functional, cell-based.
Assay [10] addresses NACHT, LRR and PYD domains-containing protein 3 (Homo sapiens) (UniProt Q96P20). Put plainly: Inhibition of NLRP3 inflammasome activation in PMA-differentiated and LPS/NIG-stimulated human THP-1 cells assessed as decrease in pro-IL-1beta expression at 20 uM incubated for 1 hrs followed by LPS stimulation for 12 hrs and NIG addition for 2 hrs by western blot analysis. It counts as cell-based. The settings on record: time 15.0 hrs.

For assay [11] the target is unchanged. Put plainly: Inhibition of NLRP3 inflammasome activation in PMA-differentiated and LPS/NIG-stimulated human THP-1 cells assessed as decrease in pro-caspase-1 expression at 20 uM incubated for 1 hrs followed by LPS stimulation for 12 hrs and NIG addition for 2 hrs by western blot analysis. It counts as cell-based. The settings on record: time 15.0 hrs.
Assay [12] concerns the target T1, P2X purinoceptor 7 (Homo sapiens) (UniProt Q99572).
T1 sequence (whole entry): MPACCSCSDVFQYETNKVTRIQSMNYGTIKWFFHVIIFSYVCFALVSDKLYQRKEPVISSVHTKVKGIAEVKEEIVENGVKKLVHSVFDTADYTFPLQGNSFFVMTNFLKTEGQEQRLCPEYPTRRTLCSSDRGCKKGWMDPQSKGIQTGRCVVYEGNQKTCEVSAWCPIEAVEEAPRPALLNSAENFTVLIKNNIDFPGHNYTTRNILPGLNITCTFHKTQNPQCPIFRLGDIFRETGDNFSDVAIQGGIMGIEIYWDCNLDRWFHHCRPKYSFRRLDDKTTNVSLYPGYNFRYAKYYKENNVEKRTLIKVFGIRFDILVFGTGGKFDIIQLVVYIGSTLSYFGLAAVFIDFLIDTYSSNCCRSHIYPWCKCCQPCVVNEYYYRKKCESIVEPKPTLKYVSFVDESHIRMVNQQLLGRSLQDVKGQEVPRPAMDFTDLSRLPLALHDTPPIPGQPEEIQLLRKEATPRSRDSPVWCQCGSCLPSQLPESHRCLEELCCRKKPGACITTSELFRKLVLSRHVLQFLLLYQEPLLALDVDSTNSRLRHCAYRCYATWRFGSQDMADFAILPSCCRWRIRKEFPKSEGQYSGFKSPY
Put plainly: Inhibition of pronase mediated degradation of P2X7 in human THP-1 cells assessed as increase in P2X7 expression at 20 to 80 uM by Western blot analysis. It counts as cell-based. The settings on record: dose 20-80 µM.

Assay [13] concerns J774.A1. Put plainly: Antiinflammatory activity against LPS/ATP-induced […] cells assessed as inhibition of ROS release at 20 uM incubated for 1 hrs followed by LPS stimulation for 12 hrs and ATP addition for 0.5 hrs by DCFH-DA staining based flow cytometry analysis. It counts as functional, cell-based. The note with it: Mus musculus, time 13.5 hrs.
The target in assay [14] is NACHT, LRR and PYD domains-containing protein 3 (Homo sapiens) (UniProt Q96P20). In words: Inhibition of NLRP3 inflammasome activation in PMA-differentiated and LPS/NIG-stimulated human THP-1 cells assessed as decrease in IL-1beta expression at 20 uM incubated for 1 hrs followed by LPS stimulation for 12 hrs and NIG addition for 2 hrs by western blot analysis. It counts as cell-based. The settings on record: time 15.0 hrs.

The target is the same in assay [15]. Put plainly: Inhibition of NLRP3 inflammasome activation in PMA-differentiated and LPS/NIG-stimulated human THP-1 cells assessed as decrease in caspase-1 expression at 20 uM incubated for 1 hrs followed by LPS stimulation for 12 hrs and NIG addition for 2 hrs by western blot analysis. It counts as cell-based. The note with it: time 15.0 hrs.
Assay [16] shares this target. In words: Inhibition of NLRP3 inflammasome activation in PMA-differentiated and LPS/MSU-stimulated human THP-1 cells assessed as decrease in IL-1beta expression at 20 uM incubated for 1 hrs followed by LPS stimulation for 12 hrs and MSU addition for 6 hrs by western blot analysis. The note with it: time 19.0 hrs. It counts as cell-based.
Assay [17] has as its system RAW264.7. In words: Antiinflammatory activity in mouse RAW264.7 assessed as inhibition of LPS-induced NO production incubated for 1 hrs followed by LPS stimulation for 18 hrs by Griess reagent based assay. It counts as functional, cell-based.
Assay [18] concerns the target NACHT, LRR and PYD domains-containing protein 3 (Homo sapiens) (UniProt Q96P20). Put plainly: Inhibition of NLRP3 inflammasome activation in PMA-differentiated and LPS/ATP-stimulated human THP-1 cells assessed as decrease in pro-IL-1beta expression at 5 to 20 uM incubated for 1 hrs followed by LPS stimulation for 12 hrs and ATP addition for 0.5 hrs by western blot analysis. It counts as cell-based. The settings on record: dose 5-20 µM, time 13.5 hrs.

For assay [19] the target is unchanged. Put plainly: Inhibition of NLRP3 inflammasome activation in PMA-differentiated and LPS/ATP-stimulated human THP-1 cells assessed as reduction in nuclear localization of NF-KappaB at 20 uM incubated for 1 hrs followed by LPS stimulation for 12 hrs and ATP addition for 0.5 hrs by DAPI staining based immunofluorescence analysis. It counts as cell-based. The note with it: time 13.5 hrs.

For the compound `CC1(C)C(=O)C=C[C@]2(C)[C@H]3CC[C@@]4(C)[C@H](c5ccoc5)OC(=O)[C@H]5O[C@]54[C@]3(C)[C@H](O)C[C@@H]12` [DEACETYLGEDUNIN], the inhibition result in assay [1], in assay [2], in assay [3], in [5], in assay [7] and in [8] was “Active” each time. Further, the inhibition result in assay [10], in [11], in assay [12], in [14], in assay [15] and in assay [16] was “Active” each time. In addition, the inhibition result in assay [18] and in [19] was “Active” each time. The outcome in assay [4], in assay [6], in [9] and in assay [13] was Active. The IC50 in assay [17] came to 9.19 µM.
